Assay results taken from the NIST ThermoML archive (doi:10.1016/j.jct.2013.01.019).
Numbers after ± are expanded uncertainties.

Columns and labels:
[1] = Molar enthalpy of transition or fusion; details: Crystal; DSC
[2] = Crystal; DTA

SMILES	Molar enthalpy of transition or fusion [1] [kcal/mol]	Normal melting temperature [2] [°C]
CCCCCCCCCCCCO [dodecan-1-ol]	9.33 ± 0.263	24.00 ± 0.53
CCCCCCCCCCCCCCCCCC [octadecane]	14.7 ± 0.406	27.80 ± 0.53
